# System: human myelogenous leukemic cells (HL-60)
# Assay: Test on inhibition of proliferation using human myelogenous leukemic cells (HL-60)
# Format: cell-based
# Conditions: for Percentage Inhibition: HL-60, compound at 5 pg/ml, 4 days at 37 C, relative to control (0.1% ethanol); for Surviving Cell Number: HL-60, start 1 x 10^5 cells/ml, compound at 5 pg/ml, stationary culture at 37 C for 4 days, Trypan Blue staining, control 29.4 x 10^4
# Description: rest on Inhibition of Proliferation Using Human Myeloqenous Leukemic Cells (HL-60)
# The test on the inhibition of proliferation of human myelogenous leukemic cells was conducted by a well-known method. The human myelogenous leukemic cells (HL-60) were added to an RPMI culture solution containing 10% bovine fetal serum, the number of cells in the culture solution was adjusted to 1 x 10^5 cells/ml, a solution in ethanol of the compound under test was added to give a concentration of 5 pg/ml, and the mixture was subjected to stationary culture at 37 C for 4 days. As a control, a culture solution to which 0.1% of ethanol had been added was similarly cultured. After the cultivation, the culture solutions were stained by the Trypan Blue staining method and the surviving cell number was measured to determine the percentage inhibition relative to the control.
Compound,Percentage Inhibition,Surviving Cell Number
"CCCCCC=CC=C1C(=O)C[C@H](O)[C@@H]1CC(=O)CCCCC(=O)OC [(12EZ,14EZ)-(9α)-6,11-Dioxo-9-hydroxyprosta-12,14-dienoic acid methyl ester]",100%,0 cells/ml
"CCCCCC=CC=C1C(=O)C=C[C@@H]1CC(=O)CCCCC(=O)OC [Methyl (9Z,12EZ,14EZ)-6,11-dioxoprosta-9,12,14-trienoate]",100%,0 cells/ml
"Methyl (13E)-(9α,15S)-6,11-dioxo-9,15- dihvdroxvprost-13-enoate [6-Keto-PGD1 methyl ester]",100%,0 cells/ml

# From patent EP0099673A2, “Prostaglandin D derivatives, process for their preparation and compositions containing them” (ONO PHARMACEUTICAL CO., LTD., priority 1982, dated 1984)
